Measurements from the supplement of paper PMC7645387.
± gives the standard deviation of the averaged measurements.

Legend:
Test in all cases: cell viability relative to DMSO control; higher = less growth inhibition
Conditions in all cases: treatment time: 6 days
HDFB = test system: HDFB
Procedure: (§1)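 MCC cell lines (PeTa, MKL-1, MS-1, WaGa) and HDFB fibroblasts were treated for 6 days with serial dilutions (1e-11 to 1e-4 M) of single compounds in quadruplicate. Viability was read by CellTiter-Glo 2.0 and expressed as % of DMSO control.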

MKL-1 = test system: MKL-1
Procedure: as §1

PeTa = test system: PeTa
Procedure: as §1

MS-1 = test system: MS-1
Procedure: as §1

WaGa = test system: WaGa
Procedure: as §1

| Compound | cell viability (HDFB; log10 concentration (M): -4) | cell viability (HDFB; log10 concentration (M): -5) | cell viability (HDFB; log10 concentration (M): -6) | cell viability (HDFB; log10 concentration (M): -7) | cell viability (HDFB; log10 concentration (M): -8) | cell viability (HDFB; log10 concentration (M): -9) | cell viability (HDFB; log10 concentration (M): -10) | cell viability (HDFB; log10 concentration (M): -11) | cell viability (MKL-1; log10 concentration (M): -4) | cell viability (MKL-1; log10 concentration (M): -5) | cell viability (MKL-1; log10 concentration (M): -6) | cell viability (MKL-1; log10 concentration (M): -7) | cell viability (MKL-1; log10 concentration (M): -8) | cell viability (MKL-1; log10 concentration (M): -9) | cell viability (MKL-1; log10 concentration (M): -10) | cell viability (MKL-1; log10 concentration (M): -11) | cell viability (PeTa; log10 concentration (M): -4) | cell viability (PeTa; log10 concentration (M): -5) | cell viability (PeTa; log10 concentration (M): -6) | cell viability (PeTa; log10 concentration (M): -7) | cell viability (PeTa; log10 concentration (M): -8) | cell viability (PeTa; log10 concentration (M): -9) | cell viability (PeTa; log10 concentration (M): -10) | cell viability (PeTa; log10 concentration (M): -11) | cell viability (MS-1; log10 concentration (M): -5) | cell viability (MS-1; log10 concentration (M): -6) | cell viability (MS-1; log10 concentration (M): -7) | cell viability (MS-1; log10 concentration (M): -8) | cell viability (MS-1; log10 concentration (M): -9) | cell viability (MS-1; log10 concentration (M): -10) | cell viability (MS-1; log10 concentration (M): -11) | cell viability (WaGa; log10 concentration (M): -5) | cell viability (WaGa; log10 concentration (M): -6) | cell viability (WaGa; log10 concentration (M): -7) | cell viability (WaGa; log10 concentration (M): -8) | cell viability (WaGa; log10 concentration (M): -9) | cell viability (WaGa; log10 concentration (M): -10) | cell viability (WaGa; log10 concentration (M): -11) |
| --- | --- | --- | --- | --- | --- | --- | --- | --- | --- | --- | --- | --- | --- | --- | --- | --- | --- | --- | --- | --- | --- | --- | --- | --- | --- | --- | --- | --- | --- | --- | --- | --- | --- | --- | --- | --- | --- | --- |
| O=C(NC[C@H](O)CN1CCc2ccccc2C1)c1ccnc(NC2CCC2)c1 [GSK591] | 91.5 ± 3.5% | 115 ± 7.4% | 112 ± 5.1% | 117 ± 5.5% | 113 ± 3.1% | 104 ± 2.8% | 104 ± 2.1% | 101 ± 2% | 37.2 ± 2.9% | 64.4 ± 12% | 72.4 ± 13% | 79.2 ± 16% | 84.2 ± 21% | 98.2 ± 17% | 111 ± 28% | 101 ± 22% | 26.2 ± 2.9% | 80.4 ± 3.4% | 93.2 ± 3.1% | 103 ± 3.5% | 107 ± 7.2% | 108 ± 6.4% | 106 ± 7.8% | 100 ± 7.8% | – | – | – | – | – | – | – | – | – | – | – | – | – | – |
| c1ccc([C@@H]2C[C@H]2NC2CCNCC2)cc1 [GSK-LSD1] | – | 97.43 ± 0.88% | 98.5 ± 1.4% | 98.6 ± 3.9% | 99.4 ± 4.2% | 100 ± 1.2% | 105 ± 2.1% | 103 ± 1.1% | – | 56.1 ± 5.8% | 62 ± 1.4% | 60.1 ± 3.4% | 67.2 ± 1.8% | 87.9 ± 6.7% | 98.1 ± 2.9% | 98.7 ± 1.5% | – | 28.8 ± 1.3% | 23.1 ± 2.4% | 21.3 ± 0.88% | 28.1 ± 0.85% | 67.8 ± 4.2% | 101 ± 5.4% | 99.1 ± 7.4% | 45.9 ± 1.6% | 45.4 ± 3.8% | 47.6 ± 1.6% | 47.1 ± 3.4% | 74.9 ± 5.8% | 93.1 ± 2.9% | 94.7 ± 3.8% | 45 ± 5.1% | 49.8 ± 2.1% | 44.1 ± 5.5% | 55.4 ± 1.8% | 76.6 ± 5.2% | 95.6 ± 3% | 97.6 ± 6.1% |
| CN1CCN(c2ccc(-c3cccc(CN4CCOCC4)c3)cc2NC(=O)c2c[nH]c(=O)cc2C(F)(F)F)CC1 [OICR9429] | 42.7 ± 12% | 83.7 ± 5.2% | 97.6 ± 5.7% | 105 ± 3.1% | 117 ± 20% | 113 ± 7.9% | 108 ± 4.6% | 104 ± 4.1% | 0.438 ± 0.44% | 57.6 ± 3.4% | 79.2 ± 7.5% | 87.1 ± 17% | 80.2 ± 6.2% | 85.8 ± 12% | 89.9 ± 12% | 85.7 ± 13% | 49.1 ± 85% | 96.8 ± 45% | 103 ± 21% | 111 ± 21% | 119 ± 29% | 126 ± 27% | 122 ± 21% | 126 ± 25% | – | – | – | – | – | – | – | – | – | – | – | – | – | – |
| N[C@H]1CC[C@H](N[C@@H]2C[C@H]2c2ccccc2)CC1 [ORY-1001] | – | 95.7 ± 2.2% | 97.6 ± 3.9% | 94.1 ± 2.7% | 95.1 ± 2.2% | 96.1 ± 1.3% | 99.58 ± 0.98% | 100 ± 1.3% | – | 39.8 ± 5.9% | 44.9 ± 3.6% | 46.4 ± 4.5% | 62.8 ± 28% | 81 ± 16% | 102 ± 3.2% | 100 ± 4.5% | – | 22.3 ± 2.8% | 18.2 ± 3.2% | 17.2 ± 0.89% | 16.3 ± 1.2% | 47.5 ± 17% | 102 ± 6.4% | 97.6 ± 4.8% | 47.3 ± 2.2% | 56.8 ± 1.2% | 58.9 ± 5.5% | 57.2 ± 2.4% | 58.8 ± 1.9% | 104 ± 3% | 104 ± 16% | 35.1 ± 2.3% | 38.3 ± 4.8% | 39.7 ± 5.1% | 44 ± 5.8% | 63.3 ± 1.2% | 91.5 ± 1.2% | 99.1 ± 0.86% |
| CCOC(=O)NCCCC(=O)NCCc1ccccc1 [Santacruzamate A] | 41.6 ± 3.4% | 103 ± 3.4% | 103 ± 3.5% | 99.8 ± 4.6% | 101 ± 3.4% | 101 ± 6.3% | 99.3 ± 7.7% | 100 ± 9.2% | 34.9 ± 2.9% | 106 ± 1.2% | 105 ± 1.5% | 104 ± 1.9% | 103 ± 1.4% | 102 ± 3.4% | 99.3 ± 7.4% | 100 ± 1.6% | 45.5 ± 14% | 104 ± 5.5% | 105 ± 2.4% | 99.9 ± 11% | 105 ± 1.4% | 103 ± 1.9% | 105 ± 3.6% | 103 ± 2.8% | – | – | – | – | – | – | – | – | – | – | – | – | – | – |
